What all share (assay): growth of human tumour cells (NCI), 48 h
Experiment [1] has as its system HCT-15.
For experiment [2], the system named is EKVX.
For experiment [3], the system named is SW-620.
Experiment [4] has as its system SN12C.
Experiment [5] relates to MCF7.
Experiment [6] concerns A549.
For experiment [7], the system named is MDA-MB-231.
Experiment [8] deals with SK-OV-3.
Experiment [9] deals with Malme-3M.
In experiment [10] the test system is SK-MEL-28.
Experiment [11] deals with RPMI-8226.
Experiment [12] relates to HOP-62.
For experiment [13], the system named is NCI-H226.
Experiment [14] relates to 786-0.
The test system of experiment [15] is NCI-H460.
Experiment [16] deals with KM12.
Experiment [17] has as its system SF-539.
For experiment [18], the system named is CCRF-CEM.
Experiment [19] has as its system K562.
Experiment [20] has as its system LOX IMVI.

Structures are written as SMILES.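 Method: 48-hour compound exposure of cells in 96-well plates, five concentrations, linear interpolation of endpoints. Here, GI50 denotes the concentration required for 50% inhibition of growth.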 Activity calls are given as the source filed them. Rule as the data show it: active = GI50 up to about 1.1 µM and inactive = higher. Bounds are passed on as bounds.

With `O=C(O)c1nnsc1-c1ccc(-c2snnc2C(=O)O)cc1`, the GI50 in [1] is 42 µM; in experiment [2] it was 91.6 µM (inactive); in experiment [3], 39.5 µM (inactive); in experiment [4], > 100 µM (inactive); in [5] it was 27.7 µM (inactive); in experiment [6] it was > 100 µM (inactive). The GI50 was > 100 µM (inactive) in experiment [7]; > 100 µM (inactive) in experiment [8]; 56.8 µM (inactive) in [9]; > 100 µM (inactive) in experiment [10]; 29.4 µM (inactive) in [11]; > 100 µM (inactive) in experiment [12]. The GI50 in experiment [13] is > 100 µM (inactive); in [14] it was 43.2 µM (inactive); in [15] it was 32.1 µM (inactive); in experiment [16] it was > 100 µM (inactive); in experiment [17] it was 33.7 µM (inactive); in experiment [18], 2.94 µM (inactive). Besides, the GI50 in [19] is 28.5 µM (inactive); in experiment [20], 31.8 µM (inactive).
For `COc1ccc(C(=O)/C=C2\C(=O)Nc3ccc(Br)cc32)cc1`, the GI50 in [1] is 2.13 µM; in [2], 13.6 µM (inactive); in [3] it was 2.32 µM (inactive); in [4] it was 2.88 µM (inactive); in [5], 6.44 µM (inactive); in experiment [6] it was 15.3 µM (inactive). The GI50 is 5.57 µM (inactive) in experiment [7]; 15.6 µM (inactive) in experiment [8]; 8.22 µM (inactive) in experiment [9]; 10.5 µM (inactive) in experiment [10]; 1.72 µM (inactive) in [11]; 10.4 µM (inactive) in [12]. In addition, the GI50 was 11.1 µM (inactive) in experiment [13]; 1.97 µM (inactive) in [14]; 10 µM (inactive) in [15]; 3.21 µM (inactive) in experiment [16]; 7.93 µM (inactive) in [17]; 1.4 µM (inactive) in [18]. Further, the figures for the GI50 in experiment [19] and in experiment [20] were 5.07 µM (inactive) and 1.99 µM (inactive), respectively.
For `C[C@H]1COC2=C1C(=O)C(=O)c1c2ccc2c1CCCC2(C)C` [CRYPTOTANSHINONE], the GI50 is 1.94 µM in [1]; 4.62 µM (inactive) in experiment [2]; 1.73 µM (inactive) in [3]; 4.37 µM (inactive) in experiment [4]; 2.22 µM (inactive) in experiment [5]; 1.05 µM (active) in experiment [6]. In addition, the GI50 in [7] is 12 µM (inactive); in experiment [8], 11.6 µM (inactive); in [9], 0.305 µM (active); in [10] it was 3.19 µM (inactive); in [11], 3.31 µM (inactive); in [12], 3.68 µM (inactive). The GI50 in experiment [13] is 3.24 µM (inactive); in experiment [14] it was 3.42 µM (inactive); in experiment [15] it was 1.63 µM (inactive); in experiment [16], 2.19 µM (inactive); in experiment [17] it was 3.35 µM (inactive); in experiment [18], 4.31 µM (inactive). Further, the GI50 was 3.61 µM (inactive) in [19] and 2.52 µM (inactive) in experiment [20].
Turning to `C[N+]1(CCN[N+]2(C)CCCCC2)CCc2ccccc2C1` (stereo not given), the GI50 is above 100 µM in experiment [1]; > 100 µM (inactive) in experiment [2]; > 100 µM (inactive) in [3]; > 100 µM (inactive) in experiment [4]; > 100 µM (inactive) in experiment [5]; > 100 µM (inactive) in experiment [6]. In addition, the GI50 in experiment [7], in experiment [8], in [9], in experiment [10], in experiment [11] and in [12] was > 100 µM (inactive) throughout. Besides, the GI50 in experiment [13] is 60.4 µM (inactive); in experiment [14] it was > 100 µM (inactive); in experiment [15] it was > 100 µM (inactive); in experiment [16], > 100 µM (inactive); in [17] it was 58.3 µM (inactive); in [18], > 100 µM (inactive). Moreover, the GI50 in [19] and in [20] was > 100 µM (inactive) in each case.
Regarding `CC(C)/C(Cl)=N\OC(=O)Nc1ccc(F)cc1`, the GI50 in [1] is 3.48 µM; in [2] it was 5.62 µM (inactive); in [3], 1.69 µM (inactive); in experiment [4] it was 5.87 µM (inactive); in experiment [5], 4.62 µM (inactive); in [6] it was 17.4 µM (inactive). In addition, the GI50 in experiment [7] is 3.47 µM (inactive); in experiment [8], 17.8 µM (inactive); in experiment [9], 1.95 µM (inactive); in experiment [10], 5.81 µM (inactive); in experiment [11] it was 1.94 µM (inactive); in experiment [12], 19.2 µM (inactive). For the same molecule, the GI50 was 18.2 µM (inactive) in experiment [13]; 5.18 µM (inactive) in experiment [14]; 18.1 µM (inactive) in experiment [15]; 16.6 µM (inactive) in experiment [16]; 16.9 µM (inactive) in [17]; 0.916 µM (active) in experiment [18]. Besides, the GI50 in experiment [19] was 1.5 µM (inactive); in [20], 2.05 µM (inactive).
With `Cc1nn(-c2cc(Cl)ccc2[N+](=O)[O-])c(C)c1Cl`, the GI50 in experiment [1] was 40.6 µM; in [2] it was 76 µM (inactive); in experiment [3], > 100 µM (inactive); in experiment [4], > 100 µM (inactive); in experiment [5], > 100 µM (inactive); in experiment [6] it was 71.1 µM (inactive). The GI50 in [7] is 48 µM (inactive); in experiment [8], > 100 µM (inactive); in experiment [9], > 100 µM (inactive); in experiment [10], > 100 µM (inactive); in [11] it was 87.7 µM (inactive); in experiment [12], > 100 µM (inactive). Further, the GI50 in experiment [13] was 65.8 µM (inactive); in experiment [14], > 100 µM (inactive); in experiment [15] it was 70.5 µM (inactive); in experiment [16], > 100 µM (inactive); in experiment [17] it was > 100 µM (inactive); in experiment [18], 37.5 µM (inactive). The results for the GI50 in experiment [19] and in [20] were 20.3 µM (inactive) and > 100 µM (inactive), respectively.
As for `S=c1c2cc(I)ccc2nc(S)n1Cc1ccccc1`, the GI50 in experiment [1] was 3.78 µM; in experiment [2], 3.71 µM (inactive); in experiment [3] it was 3.72 µM (inactive); in experiment [4], 3.16 µM (inactive); in [5], 5.42 µM (inactive); in experiment [6] it was 3.68 µM (inactive). Also, the GI50 in experiment [7] is 6.37 µM (inactive); in experiment [8] it was 4.1 µM (inactive); in experiment [9], 4.01 µM (inactive); in experiment [10] it was 3.79 µM (inactive); in [11], 2.95 µM (inactive); in experiment [12] it was 2.87 µM (inactive). For the same molecule, the GI50 in experiment [13] was 5.46 µM (inactive); in experiment [14] it was 5.96 µM (inactive); in experiment [15], 3.28 µM (inactive); in experiment [16], 3.42 µM (inactive); in experiment [17] it was 10.3 µM (inactive); in experiment [18], 1.84 µM (inactive). The GI50 is 3.54 µM (inactive) in experiment [19] and 3.4 µM (inactive) in [20].
Consider `CCOC(=O)c1c(C)c(C)n2c1NC(=O)C2`, for which the GI50 is above 61.1 µM in experiment [1]; > 60.5 µM (inactive) in experiment [2]; > 54 µM (inactive) in experiment [3]; > 54.3 µM (inactive) in experiment [4]; 25.2 µM (inactive) in experiment [5]; > 82.6 µM (inactive) in experiment [6]. Further, the GI50 was 39 µM (inactive) in experiment [7]; > 100 µM (inactive) in experiment [8]; > 50.7 µM (inactive) in [9]; > 100 µM (inactive) in experiment [10]; > 48 µM (inactive) in experiment [11]; > 66.5 µM (inactive) in experiment [12]. Also, the GI50 in experiment [13] is > 100 µM (inactive); in experiment [14], > 49.7 µM (inactive); in [15] it was > 53.1 µM (inactive); in [16] it was > 100 µM (inactive); in experiment [17] it was > 57 µM (inactive); in experiment [18], > 100 µM (inactive). Moreover, the GI50 is > 100 µM (inactive) in [19] and > 68.7 µM (inactive) in [20].
Consider `COc1cc2c3c4c1OCc1c5c(cc(c1-4)CC3[N+](C)(C)CC2)OCO5` (stereo not given), for which the GI50 in experiment [1] is above 100 µM; in experiment [2], > 100 µM (inactive); in [3], > 100 µM (inactive); in experiment [4] it was 3.21 µM (inactive); in experiment [5], > 100 µM (inactive); in experiment [6], > 100 µM (inactive). Moreover, the GI50 in [7] was > 100 µM (inactive); in [8], > 100 µM (inactive); in experiment [9] it was 60.5 µM (inactive); in experiment [10], > 100 µM (inactive); in [11], > 100 µM (inactive); in [12] it was 31.1 µM (inactive). In addition, the GI50 in experiment [13] is 32.3 µM (inactive); in [14] it was 4.33 µM (inactive); in experiment [15], > 100 µM (inactive); in [16], > 100 µM (inactive); in experiment [17], 11.2 µM (inactive); in [18], > 100 µM (inactive). Besides, the GI50 was > 86.9 µM (inactive) in experiment [19] and > 100 µM (inactive) in [20].
Take `CCC(C)C(NC(=O)C(CCCC[N+](=N)N)NC(=O)C(CCCC[N+](=N)N)NC(=O)c1ccc(OC)cc1)C(=O)NC(CCCC[N+](=N)N)C(=O)N1CCCC1C(=O)NC(CCCCN)C(=O)NC(CC(C)C)C(N)=O` (stereo not given): the GI50 in [1] was above 100 µM; in experiment [2], > 100 µM (inactive); in experiment [3], > 100 µM (inactive); in experiment [4], > 100 µM (inactive); in [5], > 100 µM (inactive); in experiment [6], > 100 µM (inactive). For the same molecule, the GI50 in [7], in experiment [8], in experiment [9], in experiment [10], in experiment [11] and in experiment [12] was > 100 µM (inactive) each time. Moreover, the GI50 in experiment [13], in experiment [14], in [15], in experiment [16], in experiment [17] and in experiment [18] was > 100 µM (inactive) throughout. For the same molecule, the GI50 in [19] and in experiment [20] was > 100 µM (inactive) throughout.
